In brackets after ≈: the same amount, converted by molar mass. Entries after “also recorded” stand apart in the source; their conditions may differ. Read-outs that look alike come from different tables or passages of the source. Where a SMILES comes first, the peptide text is derived from it.
Experiments:
[1] = target: T1, ClpXP (Escherichia coli, UniProt P0A6G7+P0A6H1); experiment: ClpXP degradation of GFP-tag in the presence of SspB, continuous fluorimetric assay (Examples 1-2); assay type: biochemical, E. coli; details: SspB present
T1 sequence (P0A6G7 15-207): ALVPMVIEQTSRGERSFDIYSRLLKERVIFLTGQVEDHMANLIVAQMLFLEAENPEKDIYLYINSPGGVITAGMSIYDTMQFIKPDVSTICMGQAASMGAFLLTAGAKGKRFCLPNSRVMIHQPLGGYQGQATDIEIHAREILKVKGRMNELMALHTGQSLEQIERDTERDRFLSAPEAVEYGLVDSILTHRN
T1 sequence (P0A6H1 whole entry): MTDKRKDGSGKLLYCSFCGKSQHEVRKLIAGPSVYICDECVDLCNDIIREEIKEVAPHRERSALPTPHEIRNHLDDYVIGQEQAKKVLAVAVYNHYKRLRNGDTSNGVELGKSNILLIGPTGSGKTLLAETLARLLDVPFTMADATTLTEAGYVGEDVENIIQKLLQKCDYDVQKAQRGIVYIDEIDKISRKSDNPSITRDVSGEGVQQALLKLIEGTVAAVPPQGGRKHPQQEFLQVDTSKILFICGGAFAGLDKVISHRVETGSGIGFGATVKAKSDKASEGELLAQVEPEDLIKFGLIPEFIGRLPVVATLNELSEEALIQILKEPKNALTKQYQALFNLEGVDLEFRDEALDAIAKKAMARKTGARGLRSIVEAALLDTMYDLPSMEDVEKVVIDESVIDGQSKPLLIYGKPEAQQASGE
Experimental: (§1) ClpXP Proteolysis: PD buffer contained 25 mM HEPES-KOH (pH 7.6), 5 mM KCl, 5 mM MgCl2, 0.032% NP-40, 5 mM ATP, and 10% glycerol. The ATP regenerating system consisted of 8 mM creatine phosphate and 0.16 mg/ml creatine kinase. Inhibition experiments were performed using a Hitachi F-2000 Fluorescence Spectrophotometer. The rate of GFP-ssrA degradation was monitored at 30° C. for 5 minutes by the loss of fluorescence (excitation 488 nm; emission 507 nm). Competition experiments with increasing concentrations of peptide were performed using GFP-ssrA (0.2 μM), ClpX6 (0.3 ArM), ClpP14 (0.8 μM), and SspB2 (0.3 μM) in PD buffer plus 200 mM KCl and ATP regenerating system. Curve fitting for the competitive inhibition assays were performed using the Scientist program (MicroMath Scientific Software, Inc.).
Characterization of ClpXP inhibitors in vitro: Two of the selected cyclic peptides were synthesized in vitro to examine their effects on enzymatic assays. Peptides with the sequence SGWRVQGPL (SEQ ID NO: 1) and SGSKGVLPL (SEQ ID NO: 2) were chemically synthesized in the linear form, circularized, and purified by HPLC. The effects of these peptides on the activity of purified ClpXP were determined in vitro using a continuous fluorimetric assay. GFP-tag, SspB, ClpX and ClpP were each purified from over-expressing strains of E. coli, and degradation of GFP-tag was monitored by loss of fluorescence. In reactions containing all components, GFP-tag was degraded with kinetic parameters kcat=1.79±0.08 min−1, KM=0.74±0.04, similar to the previously published values of 1.44 min^−1 and 0.96 μM. […] For both cyclic peptides, inhibition of ClpXP was reversible, as no inhibition was observed when ClpXP was incubated with peptide at concentrations above the Kr, and dialyzed to remove unbound peptide before addition of enzyme to the reaction. The linear versions of SGSKGVLPL (SEQ ID NO: 2) and SGWRVQGPL (SEQ ID NO: 1) had Kb, values >1 mM (Table 4), so the cyclic architecture is likely to be important for inhibition.

[2] = tested on: C. crescentus; assay type: cell-based, Caulobacter crescentus
Experimental: Antibacterial activity assays: To measure the effects of peptides on bacterial growth, cultures of C. crescentus were diluted to OD600=0.001, peptide was added at various concentrations, the cultures were incubated at 30° C. for 14 h, and the MIC was determined as the lowest concentration of peptide that prevented growth. To determine the MBC, each culture was diluted 1:100 in PYE and 10 μl of the diluted culture was spread onto PYE agar plates, incubated at 30° C. overnight, and the number of colonies on each plate was counted. The MBC was assigned as the concentration of peptide that reduced the number of colonies by 99.9% compared to cultures with no inhibitor.

[3] = target: T1, ClpXP; experiment: Proteolysis of λO protein by ClpXP, SDS-PAGE (Example 3); assay type: biochemical, E. coli
Experimental: Proteolysis of λO protein was assayed by incubating 1 μM λO with 0.1 μM ClpX6, 0.3 μM ClpP14 in buffer R at 30° C. At various times the reaction was sampled, the reaction was terminated by boiling in SDS-PAGE loading buffer, and analyzed using SDS-polyacrylamide gels stained with Coomassie blue. The intensity of the band corresponding to intact λO protein was measured using ImageQuant software (Molecular Dynamics), and plots of the intensity versus time were fit with single exponential functions to determine the half-life of λO protein.
To determine if IXP1 inhibits proteolysis of ClpXP substrates recognized by an epitope distinct from the tmRNA tag, λO protein was used as an assay substrate. […] Degradation of λO was assayed in the presence and absence of IXP1 by following the loss of intact λO protein on SDS-polyacrylamide gels (FIG. 7).

[4] = target: T1, ClpXP; experiment: ClpXP degradation of GFP-tag in the absence of SspB (Examples 1-2); assay type: biochemical, E. coli; details: no SspB
Experimental: as §1
A priori, there are several steps in the degradation pathway that could be inhibited by the selected cyclic peptides: binding of the substrate-SspB complex to ClpXP, ATPase activity of ClpX, and hydrolysis of the peptide bond by ClpP. Molecules that block the binding of substrate to SspB should not be inhibitors of proteolysis by ClpXP, because ClpXP will degrade tmRNA-tagged substrates in the absence of SspB. To determine if the inhibitors act through SspB, the kinetic assays were repeated in the absence of this proteolytic adaptor.

[5] = target: T1, ClpXP; experiment: biochemical; assay type: biochemical, E. coli
Experimental: (§2) In vitro proteolysis assays: Proteolysis of GFP-tag was performed using a continuous fluorescence assay essentially as previously described (Levchenko et al. 2000, Science 289: 2354-2356). Briefly, loss of GFP fluorescence was monitored at 507 nm after excitation at 395 nm at 30° C. using a Hitachi F-2000 Fluorescence Spectrophotometer in buffer R (25 mM HEPES-KOH (pH 7.6), 5 mM MgCl2, 50 mM KCl, 0.032% NP-40, 10% glycerol, and an ATP regeneration system containing 4 mM ATP (pH 7), 16 mM creatine phosphate and 0.32 mg/ml creatine kinase). Typically, reactions contained […], 0.3 μM ClpP14, and equimolar concentrations (0.2 μM-2.0 μM) GFP-tag and SspB. Degradation of GFP-tag protein was confirmed by SDS-PAGE assays. To examine inhibition of GFP-tag proteolysis, peptides were incubated with ClpXP in reaction buffer for 5 min prior to the addition of GFP-tag. Plots of fluorescence versus time were fit with a single exponential function to determine the initial rate of proteolysis. Kinetic parameters were estimated using Eadie-Hofstee plots.
Proteolysis of GFP-tag in the presence of ClpXP and SspB was monitored by loss of GFP fluorescence in a continuous fluorometric assay. In the absence of cyclic peptide, GFP-tag was degraded with kinetic parameters kcat=[…], KM=0.74±0.04 μM. […] Likewise, no degradation was observed when ClpX or ClpP were omitted from the reaction.

[6] = target: T1, ClpXP; experiment: In vitro proteolysis of GFP-tag by ClpXP without SspB (Example 3); assay type: biochemical, E. coli; details: no SspB
Experimental: as §2
In the in vitro and in vivo proteolysis reactions above, the proteolytic adaptor SspB binds GFP-tag and tethers it to ClpXP (Levchenko et al. 2000, Science 289: 2354-2356). In principle, IXP1 could act on the GFP-tag.cndot.ClpXP interaction or the SspB.cndot.ClpXP interaction. […]

[7] = tested on: GFP-tag degradation by ClpXP; experiment: In vivo screen: GFP-tag reporter fluorescence in E. coli producing the cyclic peptide from a SICLOPPS plasmid, epifluorescence microscopy (Example 3); assay type: cell-based
Experimental: Screen for inhibitors of the tmRNA pathway: E. coli BW7786 cells containing the GFP-tag reporter and the SICLOPPS library were grown in LB broth with 30 μg/ml chloramphenicol, 100 μg/ml ampicillin, and 0.0002% arabinose at 37° C. to OD600=0.3. IPTG was added to a final concentration of 1 mM, and the culture was grown for 3 hours. Cells were sorted by fluorescence activated cell sorting (FACS) using a Beckman Coulter Elite cell sorter with Autoclone to isolate cells with GFP fluorescence, and selected cells were deposited on agar plates for clonal growth. Cells from each colony were grown in liquid culture as described above and examined by epifluorescence microscopy. The fluorescence intensity and the number of cells with fluorescence above background were scored using ImagePro software (MediaCybernetics). SICLOPPS plasmid DNA was prepared from selected clones and the region encoding the cyclic peptide was sequenced. Peptide sequences were obtained from conceptual translation of the DNA sequences.
Approximately 0.014% of the population had fluorescence over the background level, and 96 of these cells were isolated for clonal growth and characterization. To eliminate any clones that resulted from sorting errors or spurious accumulation of GFP, cells from each colony were cultured and examined by epifluorescence microscopy.

[8] = tested on: GFP-tag reporter; experiment: GFP-tag reporter fluorescence in cells expressing SGW+5 SICLOPPS clones, epifluorescence microscopy (Example 1); assay type: cell-based, E. coli
Description: Clonal populations are obtained by spotting the cells with high fluorescence on agar plates, and cells from each colony are screened by epi-fluorescence microscopy for fluorescence intensity. SICLOPPS plasmids from clones that pass the microscopy screen were isolated and sequenced to identify the cyclic peptide that is produced in that clone.
A SICLOPPS library was constructed in which the cyclic peptide contains three constant amino acids, SGW, followed by five random amino acids encoded by NNS codons. This library was introduced into cells containing the GFP-tag reporter, and the expression of the reporter and cyclic peptide were induced. Approximately 690,000 cells were sorted by FACS and the brightest 50 were isolated. These 50 clones were grown individually in fresh medium, the expression of reporter and cyclic peptide was induced, and the culture was observed by epifluorescence microscopy. Two clones produced cultures in which nearly 100% of the cells were highly fluorescent.

[9] = target: ClpX (Escherichia coli, UniProt P0A6H1); experiment: ClpX ATPase assay; assay type: biochemical, E. coli
Sequence of ClpX (P0A6H1 whole entry): as above
Experimental: ATPase and peptidase assays: ClpX ATPase activity was measured by monitoring the increase in phosphate using a ternary hetero polyacid assay (Chen et al. 2003, Tsinghua Science and Technology 8: 422-427). 1 μM ClpX was incubated with or without 6 μM GFP-tag and varying concentrations of IXP1 in buffer P (4 mM ATP, 50 mM tris-HCl (pH 7.5), 100 mM NaCl, 100 mM KCl, 10 mM MgCl2, 2 mM DTT, and 10% glycerol) at 37° C. At each time point 10 μl was removed from the reaction, added to 265 μl 0.88 M nitric acid for 2 min, and 225 μl color developing solution (44.4 mM bismuth nitrate, 31.1 mM ammonium molybdate, 0.11% ascorbic acid) was added and the absorbance at 700 nm was determined. The rate of ATP hydrolysis was determined from plots of phosphate accumulation versus time.

[10] = target: ClpP (Escherichia coli, UniProt P0A6G7); experiment: ClpP peptidase assay with Suc-Leu-Tyr-AMC; assay type: biochemical, E. coli; details: Suc-Leu-Tyr-AMC substrate
Sequence of ClpP (P0A6G7 15-207): as the sequence (P0A6G7 15-207) above
Experimental: ClpP peptidase activity was measured using the fluorogenic peptide Suc-Leu-Tyr-AMC. 0.1 μM ClpP was incubated with 0.5-1.0 mM Suc-Leu-Tyr-AMC and varying concentrations of IXP1 in buffer P at 37° C. and monitoring the fluorescence of AMC (excitation at 353 nm, emission at 442 nm).

[11] = target: T1, ClpXP; experiment: Peptidase activity of ClpXP against IXP1, reverse-phase HPLC; assay type: biochemical, E. coli; details: 60 min, no GFP-tag, HPLC peak area
Experimental: Peptidase activity against IXP1 was assayed by incubating 200 μM IXP1 with 0.1 μM ClpX6, 0.3 μM ClpP14 and the ATP regeneration system in buffer R at 37° C. Sample were taken after 0, 5, and 60 min, and
separated by reverse-phase HPLC using a Varian Microsorb-MV C18 column developed in a gradient from 0.1% trifluoroacetic acid in water to 0.1% trifluoroacetic acid in acetonitrile. UV absorbance at 280 nm was monitored and the peak corresponding to the IXP1 cyclic peptide was determined by comparison to reactions containing only cyclic IXP1 or linear IXP1. The loss of cyclic IXP1 was determined by integrating the area under the cyclic IXP1 peak.

SMILES | KI fold lower than the linear XB peptide [1] [fold] | KI fold lower than the selected cyclic peptide inhibitors [1] | MBC ([2]; C. crescentus, 99.9% colony reduction, listed as cyclic XB) [µM] | inhibition of λO degradation by ClpXP [3] | inhibition of GFP-tag degradation by ClpXP in the absence of SspB [4] | KI fold lower than the linear XB peptide ([5]; SspB present) [fold] | effect on GFP-tag degradation by ClpXP in the absence of SspB [6] | cell morphology ([7]; compared with filamentous ΔclpX strain) | GFP-tag fluorescence / inhibition in vivo ([7]; compared with ΔclpX strain) | MBC [2] [µM] | MIC [2] [µM] | average fluorescent intensity relative to cultures expressing ICP1 or ICP2 [8] | cells highly fluorescent ([8]; induced culture) [%] | ClpX ATPase activity with GFP-tag included ([9]; with GFP-tag) | rate of ClpX ATP hydrolysis ([9]; without GFP-tag, up to 200 μM IXP1) | decrease of ClpP peptidase activity [10] | amount of cyclic peptide after incubation with ClpXP [11] | mode of inhibition of GFP-tag degradation ([5]; SspB present) | inhibition of ClpXP proteolysis of GFP-tag in vitro ([5]; at the concentrations tested)
CC(C)C[C@@H]1NC(=O)[C@H](C)NC(=O)[C@@H]2CCCN2C(=O)[C@H](CCCNC(=N)N)NC(=O)CNC(=O)CNC(=O)[C@H](CCCNC(=N)N)NC(=O)[C@H](CS)NC(=O)[C@H](CCCCN)NC(=O)[C@H](C(C)C)NC(=O)[C@H](C(C)C)NC(=O)[C@H](CCCNC(=N)N)NC1=O [cycXB, CRGGRPALRVVK] (HELM PEPTIDE1{A.L.R.V.V.K.C.R.G.G.R.P}$PEPTIDE1,PEPTIDE1,1:R1-12:R2$$$V2.0) | 7 | 2-3 fold | 40 ± 6 (≈ 51.7 µg/mL) | did not inhibit | inhibited | 7 |  |  |  |  |  |  |  |  |  |  |  |  | 
N=C(N)NCCC[C@@H]1NC(=O)CNC(=O)[C@H](Cc2ccc(O)cc2)NC(=O)[C@H](Cc2c[nH]c3ccccc23)NC(=O)CNC(=O)[C@H](CO)NC(=O)[C@H](Cc2c[nH]cn2)NC(=O)[C@H](CCCNC(=N)N)NC1=O [IXP1, SGWYGRRH] (HELM PEPTIDE1{G.R.R.H.S.G.W.Y}$PEPTIDE1,PEPTIDE1,1:R1-8:R2$$$V2.0) |  |  |  |  |  |  | still inhibited | slightly filamentous | indistinguishable from the ΔclpX strain; also recorded: fluorescent cells | 279 ± 23 (≈ 279 µg/mL) | 219 ± 42 (≈ 219 µg/mL) | more than twice | ~100 | no effect | not inhibited | less than 2% | did not change; also recorded: unchanged | uncompetitive inhibition | reduced the rate
